# Entries after “also recorded” stand apart in the source; their conditions may differ.
# How the values were obtained:
# Format in all cases: in vivo, mouse
# [1] = Compound A concentration in tissues by LC/MS; conditions: KPC mice; oral administration 40 mg/kg; 6 h after final dose
# Method: KPC mice harboring pancreatic tumors were treated with 40 mg/kg of Compound A by oral gavage, either singly, once daily for four days or at as part of a survival study. […] Six hours following the final dose, tissue samples were harvested, snap frozen in liquid nitrogen and stored at −80° C. Mice with abdominal ascites were excluded from analysis. Samples were analyzed by LC/MS, as described below.
# Calibration standard stock solutions were prepared by dissolving Compound A at a concentration of 2.5 mg/mL in DMSO. Internal standard stock solution was prepared by dissolving deuterated Compound A (Compound A-d^3) in DMSO for a final concentration of 2.5 mg/mL. Stock solutions were stored in aliquots at −80° C. until further use. […]
# Tumor samples were homogenized in 4 volumes of ACN:PBS buffer. […] Compound A concentrations for all tissues were preferentially determined using the 1:1 dilution unless any of the replicates for a given tissue required the higher dilution of 1/100 for accurate quantitation.
# Compound A concentrations in the samples were determined from the calibration curves generated in homogenization buffer. […]
# The data were acquired and processed using the software Analyst 1.4.1 (Applied Biosystems, Foster City, Calif.). For the standard curve samples, peak area ratios of Compound A to internal standard […] were calculated and plotted against the theoretical concentrations. […]
# [2] = tested on: KPC tumors; assay: Doxorubicin delivery to treated KPC tumors (doxorubicin fluorescence, laser scanning cytometry); conditions: KPC tumors after 8-12 days of treatment; doxorubicin 20 mg/kg infused
# Method: To assess the functional vasculature, biotin-conjugated Lycopersicon esculentum lectin (B1175-1 mg, Vector Laboratories) was resuspended in 425 μL PBS and mixed with 75 μL of 1 mg/mL Streptavidin-AlexaFluor 633 (S21375, Molecular Probes) (in sterile PBS). Prior to use, the lectin-avidin mixture was centrifuged 14,000 k on a microfuge for 10 minutes to remove any particulate. Fifteen minutes prior to euthanasia, 100 μl (0.4 mg total) of the conjugated lectin was administered as a slow intravenous infusion over 5 minutes, and the hemodynamics monitored closely to ensure that it was tolerated. […]
# Mice were perfused with 4% paraformaldehyde in PBS, pH 7.4, while under terminal anesthesia. […] Doxorubicin fluorescence was determined by quantitative imaging cytometry using the iCys Research Imaging Cytometer (CompuCyte, Cambridge, Mass.) with iNovator software (CompuCyte).
# A scanning protocol for quantification was configured with two channels. Nuclear DAPI fluorescence was excited by the 405 nm diode laser and detected in the blue ([…]) channel and doxorubicin fluorescence was excited by the argon […] laser and detected in the orange ([…]) channel. The threshold in the DAPI channel was optimised to selectively contour individual cells allowing fluorescence measurement within the primary and peripheral nuclear contours. […]
# [3] = 19F NMR of fluorinated gemcitabine metabolites in tissue; conditions: KPC tumors; 10 days of treatment; vs untreated tumors
# Method: Mice were treated with indicated regiments for 12 days. […] Tissues were rapidly dissected and snap frozen in liquid nitrogen. Tissue specimens were maintained at −80° C. until subjected to nucleotide extraction. Samples were homogenized in a Qiagen TissueLyser with a 5 mm ball bearing for 2×6 minutes at 25 KHz, in the presence of 4 volumes of ice-cold acetonitrile (μL acetonitrile=4×[…] of tissue). An equal volume of water was added and then the sample was spun at 14,000 rpm for 10 minutes at 4° C. Supernatant was freeze dried, resuspended in 600 μL of D2O and transferred to a 5 mm standard NMR tube (Wilmad) for ^19F NMR analysis on a Bruker 600 MHZ (14.1T) Avance NMR spectrometer using a QNP probe. Acquisition parameters included a 1D pulse sequence of ^19F observation and inverse-gated ^1H decoupling, spectral sweep width of 177 ppm (100000 Hz), 4096 scans and 1.65 sec of repetition time. Total acquisition time for each sample was about 1 hr 55 min. Trichloro-fluoro-methane was used for ^19F NMR chemical shift calibrations. A broad hump observed in the baseline of ^19F NMR spectra was removed by application of Linear-prediction (LP) back projection to the time domain data by using 2000 (number of LP) coefficients and 128 back-prediction points prior to Fourier transformation and phase correction. […]
# [4] = tested on: KPC tumors; assay: Histology (H&E) of treated KPC tumors; conditions: KPC tumors after 8-12 days of treatment
smiles,measurement,setting,value
CC1=C2C[C@H]3[C@@H](CC[C@@H]4C[C@H](NS(C)(=O)=O)CC[C@@]43C)[C@@H]2CC[C@@]2(C1)O[C@@H]1C[C@H](C)CN[C@H]1[C@H]2C.Cl [Compound A],accumulation of drug in PDA tissues,[1],measurable accumulation of drug in PDA tissues
same,doxorubicin delivery to tumor tissue (fluorescence per unit area),[2],evident but more variable; also recorded: increased content
same,concentration of gemcitabine metabolites in KPC tumor tissue,[3],No difference
same,tumor stroma / histological pattern,[4],dramatically altered histological patterns; also recorded: loss of cellular and acellular stroma
